{"source": "paper PMC7395176", "about": "“Retromer stabilization results in neuroprotection in a model of Amyotrophic Lateral Sclerosis” (Nature Communications, 2020)", "key": {"VPS35 [1]": {"target": "T1, VPS35 (Mus musculus, UniProt Q9EQH3+Q9QZ88)", "settings": "Neuro2a cells, 10 µM, 48 h, WB", "protocol": "Protein extracts were collected, separated by SDS-PAGE and immunoblotted for VPS35 and the housekeeping gene β-Actin.\nNeuro2a cells (ATCC® CCL-131™) were seeded in Dulbecco’s modified Eagle’s media (DMEM, Gibco) supplemented with FBS 10% (Gibco), L-glutamine (Gibco) 2 mM and penicillin/streptomycin 1% (Gibco). Depending on the experimental setting, we used 6-well, 12-well or 96-well dishes. Neuro2a were grow at 37 °C in a humidified 5% CO2 atmosphere. All experiments were carried out at least in triplicate. Compounds and transfections were done on cells showing 60–70% of confluence. Compounds were usually kept on cells for 48 h; Bortezomib (BTZ) was used at 10 nM for 6 h to inhibit proteasome.\nProtein lysates from cells cultures were collected from plates receiving PBS 1× washing and subsequently the lysis buffer followed by sonication. Protein concentrations were measured by BCA protein assay kit (Thermofisher) according to the manufacturer’s recommendations. Ten µg of protein extract was loaded on 10% Mini-PROTEAN TGX Stain-Free precast gels for PAGE (Bio-Rad). Gel electrophoresis was performed at 100 V for 2 h. Gels were transferred on Immobilon®-P PVDF membrane according to the manufacturer’s instructions (Millipore). Blots were blocked in 5% BSA in Tris buffered saline plus 0.1% Tween-20 (TBS-T) for 1 h before receiving primary antibodies: goat α-VPS35 1:800 (ab10099, Abcam); rabbit α-VPS26 1:1000 (ab23892 Abcam), rabbit α-VPS26b 1:1000 (15915-1-AP, ProteinTech); rabbit α-VPS29 1:1000 (ab236796 Abcam); mouse α-βActin 1:25000 (Sigma–Aldrich); mouse α-Golgin97 1:1000 (Invitrogen); mouse α-Ubiquitin 1:500 (Merk); rabbit α-CD14 1:1000 (Bioss Inc); mouse α-Tubulin 1:5000 (Immunological Sciences MAB-80143) overnight at 4 °C on shaker. Following several washes with TBS-T, blots were incubated in appropriate HRP-labeled secondary antibodies (Bio-Rad) for 1 h at room temperature. […] Quantifications were done using the Image Lab 6.0.1 software (Bio-Rad)."}, "VPS35 [2]": {"target": "T1, VPS35", "experiment": "Western blot for VPS35 in spinal cord extracts of treated C57BL6J mice", "type": "in vivo", "set-up": "from tissue; host or cells: mouse (lumbar) spinal cord, motor neurons", "settings": "10 mg/Kg intraperitoneally daily, 1 week", "description": "Compounds 2a, 4a, and standard R55/1 (10 mg/Kg) were intraperitoneally injected in C57BL6J mice daily. After 1 week, mice were sacrificed, saline perfused to avoid CNS contamination by compounds in blood circulation, and SC protein extracts were assayed by WB. […] Therefore, phenyl-1,3-bis-guanylhydrazone 2a was selected as an early lead."}, "VPS29-VPS35 heterodimer": {"target": "VPS29-VPS35 heterodimer (Homo sapiens, UniProt Q96QK1+Q9UBQ0)", "experiment": "STD-NMR and WaterLogsy-NMR ligand-based binding experiments", "settings": "STD- and WL-NMR competition experiments could not be performed", "description": "We used a ligand-based NMR approach to localize the binding between compound 2a and the VPS29-VPS35 heterodimer. These techniques provide binding information without requiring any isotopic labeling of the proteins. Particularly, Saturation Transfer Difference NMR (STD-NMR)[32] and WaterLogsy-NMR (WL-NMR)[33] experiments were acquired in buffer solutions containing a large excess of compound 2a (500μM) with respect to VPS29-VPS35 (10 μM). Both STD-NMR and WL-NMR focus on the NMR signals of the ligand and utilize the magnetization transfer by the Nuclear Overhauser Effect (NOE) between protein and ligand. STD-NMR experiments are carried out by subtraction of a 1D ^1H spectrum where the protein protons are selectively irradiated (on-resonance spectrum) from a spectrum in which the protein is not saturated (off-resonance spectrum).\nWL-NMR entails magnetization transfer to the ligand from either bulk water via a macromolecule, and/or the exchangeable protons and the water molecules present in the binding site. Positive peaks for proton resonances of the ligand in the WL-NMR spectrum are observed for binders in presence of the protein. […] As negative control, STD-NMR and WL-NMR experiments were performed for compound 2a in absence of the heterodimer. The absence of proton signals in the aromatic zone and the presence of negative signals in STD-NMR (Fig. 2k) and WL-NMR (Fig. 2l) spectra, respectively, confirms the binding between compound 2a and the VPS29-VPS35 heterodimer. Unfortunately, STD- and WL-NMR competition experiments between 2a and R55/1 could not be performed since the latter compound was not stable in our experimental conditions.\nNMR spectra were acquired at 298K on a Bruker Avance NEO 700 MHz spectrometer equipped with a Z-gradient cryoprobe. The spectra were processed with the Bruker TOPSPIN 4.0.5 software packages. […] 1D ^1H spectra were recorded using a 1 s presaturation pulse with a B1 power of 200 Hz. […]"}, "APP processing": {"system": "APP processing", "set-up": "method as in PMID 24747528", "settings": "neurons carrying pathogenic APP mutations; cited from earlier work"}, "[3]": {"system": "Vps35, Vps26, and Vps29 mRNAs", "set-up": "method as in PMID 24747528", "settings": "cited from earlier work"}, "[4]": {"system": "VPS35-VPS29 interaction / retromer", "set-up": "method as in PMID 24747528", "settings": "cited from earlier work"}}, "data": [{"smiles": "N=C(N)SCc1cccc(CSC(=N)N)c1", "note": "[compound 4a]", "values": [{"measurement": "VPS35 levels", "setting": "VPS35 [1]", "value": "increased VPS35 levels"}, {"measurement": "VPS35 levels in SC extracts", "setting": "VPS35 [2]", "value": "slightly, but not significantly, increased"}]}, {"smiles": "N=C(N)SCc1ccc(CSC(=N)N)s1", "note": "[R55/1]", "values": [{"measurement": "VPS35 levels", "setting": "VPS35 [1]", "value": "increased"}, {"measurement": "stability in NMR experimental conditions", "setting": "VPS29-VPS35 heterodimer", "value": "not stable"}, {"measurement": "accumulation of amyloid-β peptides and APP processing", "setting": "APP processing", "value": "reduced the accumulation of amyloid-β (Aβ) peptides as well as APP processing"}, {"measurement": "transcription levels of CRC genes", "setting": "[3]", "value": "did not influence"}, {"measurement": "VPS35-VPS29 interaction", "setting": "[4]", "value": "stabilizes the VPS35-VPS29 interaction"}, {"measurement": "VPS35 and VPS26 levels in cultured cells", "setting": "[4]", "value": "increases VPS35 and VPS26 levels"}, {"measurement": "increase of VPS35 levels in cells", "setting": "[4]", "value": "~60", "unit": "%"}]}, {"smiles": "NC(N)=N/N=C/c1ccc(/C=N/N=C(N)N)s1", "note": "[compound 3a]", "values": [{"measurement": "VPS35 levels", "setting": "VPS35 [1]", "value": "increased VPS35 levels"}]}]}
